Assay results reported in US10144756B2, “Stable solid forms of regadenoson” (Euticals S.p.A., priority 2013, dated 2018).
Like-named read-outs stand apart in the source and are kept apart here.

Experiments:
[1] = HPLC stability of solid forms stored at 80° C. in inert atmosphere; conditions: for HPLC stability data (chromatographic purity): 80° C. in inert atmosphere
[2] = HPLC stability of solid forms stored at 90% RH and 20-25° C.; conditions: for HPLC stability data (chromatographic purity): 90% RH and 20-25° C.
[3] = not given; remark: listed apart in the source
[4] = U.S. Pat. No. 8,106,183 / WO2012149196, cited from earlier work
[5] = Thermal treatment of polymorphic form A at 190-200° C. (prior-art route to amorphous form); assay type: physicochemical; conditions: thermal treatment at 190-200° C.
Method: In U.S. Pat. No. 8,106,183 the method of preparation of an amorphous form of Regadenoson is described by heating polymorphic form A at 200° C.; this solid state, differently by polymorphic forms A-C, was not described by the authors by an X-ray diffraction spectrum in order to identify possible characteristic halo-peaks (broad peaks). This amorphous form was prepared according to U.S. Pat. No. 8,106,183 by heating the polymorphic form A over the melting point value of this substance (that for polymorphic form A is 194.5° C.). This method is not industrially applicable and leads to the formation of several side products. […] To the best of our knowledge, this is the only described method for the preparation of amorphous Regadenoson.

Compound `CNC(=O)c1cnn(-c2nc(N)c3ncn([C@@H]4O[C@H](CO)[C@@H](O)[C@H]4O)c3n2)c1` [Halo Amorphous, (1-{9-[(4S,2R,3R,5R)-3,4-dihydroxy-5-(hydroxymethyl)oxolan-2-yl]-6-aminopurin-2yl}pyrazol-4-yl)-N-methylcarboxamide] has an HPLC stability data (chromatographic purity) ([1]; time 0 hours) of 99.7%, an HPLC stability data (chromatographic purity) ([1]; time 72 hours) of 99.7% and an HPLC stability data (chromatographic purity) ([1]; time 96 hours) of 99.7%. The stability to heating ([1]; 80° C., protected atmosphere / dry conditions, up to 96 hours) was “stable to the heating”, the “formation of degradation products” value ([1]; dry conditions, 80° C. up to 96 hours) was “does not give origin to degradation products” and the HPLC stability data (chromatographic purity) ([2]; time 0 hours) was 99.7%. For the same compound, the HPLC stability data (chromatographic purity) ([2]; time 96 hours) was 99.7% and the “formation of degradation products” value ([2]; exposed to moisture, 25° C./90% RH up to 96 hours) was “does not give origin to degradation products”.
For `CNC(=O)c1cnn(-c2nc(N)c3ncn([C@@H]4O[C@H](CO)[C@@H](O)[C@H]4O)c3n2)c1` [Form F, (1-{9-[(4S,2R,3R,5R)-3,4-dihydroxy-5-(hydroxymethyl)oxolan-2-yl]-6-aminopurin-2yl}pyrazol-4-yl)-N-methylcarboxamide], the HPLC stability data (chromatographic purity) (0 h) was 99.8%, the HPLC stability data (chromatographic purity) (96 h) was 99.8% and the HPLC stability data (chromatographic purity) ([3]; 0 h) was 99.8%. For the same compound, the HPLC stability data (chromatographic purity) ([3]; 72 h) was 99.7% and the HPLC stability data (chromatographic purity) ([3]; 96 h) was 99.7%.
In the case of `CNC(=O)c1cnn(-c2nc(N)c3ncn([C@@H]4O[C@H](CO)[C@@H](O)[C@H]4O)c3n2)c1` [Polymorph C], the “stability of the solid form as described in the literature” value (“stability of the solid form as described” for short) [4] is listed as “unstable at high temperatures”.
`CNC(=O)c1cnn(-c2nc(N)c3ncn([C@@H]4O[C@H](CO)[C@@H](O)[C@H]4O)c3n2)c1` [Form G, (1-{9-[(4S,2R,3R,5R)-3,4-dihydroxy-5-(hydroxymethyl)oxolan-2-yl]-6-aminopurin-2yl}pyrazol-4-yl)-N-methylcarboxamide] showed an HPLC stability data (chromatographic purity) (0 h) of 99.8%, an HPLC stability data (chromatographic purity) (96 h) of 99.8% and an HPLC stability data (chromatographic purity) ([3]; 0 h) of 99.8%. For the same compound, the HPLC stability data (chromatographic purity) ([3]; 72 h) was 99.8% and the HPLC stability data (chromatographic purity) ([3]; 96 h) was 99.8%.
For `CNC(=O)c1cnn(-c2nc(N)c3ncn([C@@H]4O[C@H](CO)[C@@H](O)[C@H]4O)c3n2)c1` [Form A, (1-{9-[(4S,2R,3R,5R)-3,4-dihydroxy-5-(hydroxymethyl)oxolan-2-yl]-6-aminopurin-2yl}pyrazol-4-yl)-N-methylcarboxamide, reference compound], the HPLC stability data (chromatographic purity) ([1]; time 0 hours) was 99.5%, the HPLC stability data (chromatographic purity) ([1]; time 72 hours) was 99.5% and the HPLC stability data (chromatographic purity) ([1]; time 96 hours) was 99.5%. The “decrease of chromatographic purity” value [5] was “about 30%”, the “change in the color of the sample” value ([5]; form A is white before) was “the color changes to brown” and the “stability of the solid form as described” value ([4]; listed as Regadenoson Form A) was “more stable than polymorphs B and C”. For the same compound, the HPLC stability data (chromatographic purity) ([2]; time 0 hours) was 99.5% and the HPLC stability data (chromatographic purity) ([2]; time 96 hours) was 99.5%.
For `CNC(=O)c1cnn(-c2nc(N)c3ncn([C@@H]4O[C@H](CO)[C@@H](O)[C@H]4O)c3n2)c1` [Form D], the “stability of the solid form as described” value [4] is listed as “stable under inert conditions”.
Compound `CNC(=O)c1cnn(-c2nc(N)c3ncn([C@@H]4O[C@H](CO)[C@@H](O)[C@H]4O)c3n2)c1` [Form E] has an HPLC stability data (chromatographic purity) (0 h) of 99.6%, an HPLC stability data (chromatographic purity) (96 h) of 99.7% and an HPLC stability data (chromatographic purity) ([3]; 0 h) of 99.6%. The HPLC stability data (chromatographic purity) ([3]; 72 h) was 99.4% and the HPLC stability data (chromatographic purity) ([3]; 96 h) was 99.6%.
